In ChEMBL document CHEMBL3124764, “6-Triazolyl-substituted sulfocoumarins are potent, selective inhibitors of the tumor-associated carbonic anhydrases IX and XII” (Bioorg Med Chem Lett, 2014):

Experiments:
[1] = target: Carbonic anhydrase 2 (Homo sapiens, UniProt P00918); assay: Inhibition of human recombinant carbonic anhydrase 2-mediated CO2 hydration after 6 hrs by stopped-flow assay
[2] = target: Carbonic anhydrase 1 (Homo sapiens, UniProt P00915); assay: Inhibition of human recombinant carbonic anhydrase 1-mediated CO2 hydration after 6 hrs by stopped-flow assay
Sequence of Carbonic anhydrase 1 (P00915 whole entry): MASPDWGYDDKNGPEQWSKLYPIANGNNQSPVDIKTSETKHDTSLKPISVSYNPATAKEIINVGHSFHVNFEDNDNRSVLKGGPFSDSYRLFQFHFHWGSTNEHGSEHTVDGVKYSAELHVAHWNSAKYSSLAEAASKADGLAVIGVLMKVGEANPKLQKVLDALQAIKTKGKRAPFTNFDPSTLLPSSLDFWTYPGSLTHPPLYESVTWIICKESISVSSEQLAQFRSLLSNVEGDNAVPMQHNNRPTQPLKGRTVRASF

[3] = target: T1, Carbonic anhydrase 9 (Homo sapiens, UniProt Q16790); assay: Inhibition of human recombinant carbonic anhydrase 9-mediated CO2 hydration after 6 hrs by stopped-flow assay
[4] = target: T1, Carbonic anhydrase 9; assay: Ratio of acetazolamide Ki to compound Ki for human recombinant carbonic anhydrase 9

SMILES | Ki [1] | Ki [2] | Ki [3] | Ratio Ki [4]
O=S1(=O)C=Cc2cc(-n3nncc3-c3ccc(C(F)(F)F)cc3)ccc2O1 | > 10 µM | > 10 µM | 0.0072 µM | –
Nc1cccc(-c2cn(-c3ccc4c(c3)C=CS(=O)(=O)O4)nn2)c1 | > 10 µM | > 10 µM | 0.875 µM | –
CC(C)(C)c1cn(-c2ccc3c(c2)C=CS(=O)(=O)O3)nn1 | > 10 µM | > 10 µM | 0.0105 µM | –
CC(C)(O)c1cn(-c2ccc3c(c2)C=CS(=O)(=O)O3)nn1 | > 10 µM | > 10 µM | 0.0627 µM | –
O=S1(=O)C=Cc2cc(-n3cc(-c4cccc(F)c4)nn3)ccc2O1 | > 10 µM | > 10 µM | – | –
O=S1(=O)C=Cc2cc(-n3nncc3-c3cccc(C(F)(F)F)c3)ccc2O1 | > 10 µM | > 10 µM | – | –
Nc1ccccc1-c1cn(-c2ccc3c(c2)C=CS(=O)(=O)O3)nn1 | > 10 µM | > 10 µM | 0.0079 µM | –
Nc1ccccc1-c1cnnn1-c1ccc2c(c1)C=CS(=O)(=O)O2 | > 10 µM | > 10 µM | 0.0095 µM | –
O=S1(=O)C=Cc2cc(-n3cc(-c4ccc(Cl)cc4)nn3)ccc2O1 | > 10 µM | > 10 µM | – | 3
O=S1(=O)C=Cc2cc(-n3cc(-c4cccc(Cl)c4)nn3)ccc2O1 | > 10 µM | > 10 µM | 0.0931 µM | –
O=S1(=O)C=Cc2cc(-n3cc(-c4ccc(C(F)(F)F)cc4)nn3)ccc2O1 | > 10 µM | > 10 µM | 0.136 µM | –
O=S1(=O)C=Cc2cc(-n3cc(C4CC4)nn3)ccc2O1 | > 10 µM | > 10 µM | – | –
O=S1(=O)C=Cc2cc(-n3nncc3-c3cccc(Cl)c3)ccc2O1 | > 10 µM | > 10 µM | 0.0088 µM | –

Now from value to compound:

Ki [1] | Ki [2] | Ki [3] | Ratio Ki [4] | SMILES
> 10 µM | > 10 µM | 0.0091 µM | – | COc1cccc(-c2cnnn2-c2ccc3c(c2)C=CS(=O)(=O)O3)c1
> 10 µM | > 10 µM | 0.0074 µM | – | O=S1(=O)C=Cc2cc(-n3nncc3-c3cccc(F)c3)ccc2O1
> 10 µM | > 10 µM | 0.0092 µM | – | O=S1(=O)C=Cc2cc(-n3nncc3-c3ccc(Cl)cc3)ccc2O1
> 10 µM | > 10 µM | – | – | O=S1(=O)C=Cc2cc(-n3nncc3-c3ccc(F)cc3)ccc2O1
> 10 µM | > 10 µM | 0.0671 µM | – | O=S1(=O)C=Cc2cc(-n3nncc3-c3ccccc3)ccc2O1
> 10 µM | > 10 µM | 0.102 µM | – | O=S1(=O)C=Cc2cc(-n3nncc3-c3ccc(OC(F)(F)F)cc3)ccc2O1
> 10 µM | > 10 µM | 0.0083 µM | – | COc1ccc(-c2cnnn2-c2ccc3c(c2)C=CS(=O)(=O)O3)cc1
> 10 µM | > 10 µM | – | – | O=S1(=O)C=Cc2cc(-n3cc(-c4ccc(F)cc4)nn3)ccc2O1
